# Experimental data as given in US8026217B2, “Compositions and methods for treating neural anoxia and spreading depression” (Florida Atlantic University, priority 2007, dated 2011).
# “Also recorded” adds a separate entry of the source. Like-named read-outs stand apart in the source and are kept apart here.
# Assays:
# [1] = test system: metathoracic ganglion of the locust; assay: SD-like events evoked by high-potassium (KCl 150 mM) injection into the locust metathoracic ganglion; format: in vivo, Locusta migratoria; conditions: for time to recover ventilatory central pattern generator (vCPG) function following SD: Example 5, NO synthase inhibitor and NO donors, FIG. 4G
# Excerpt: CSD is increasingly accepted as a primary causative agent for migraine, particularly migraine with aura. The cellular mechanisms underlying stroke, seizures and migraine are not exclusive to mammals. Using the locust (Locusta migratoria), a proven model for examining the effects of heat stress on CNS activity, a rapid rise in extracellular potassium ([K^+]o) during anoxia/hypoxia, extreme heat, and ouabain exposure was monitored. This phenomenon has all the characteristics of SD in the neocortex of mammals. Since the physiological mechanisms observed in locust SD-like events are similar to that of mammals, findings in this insect model are predictably transferable to mammals, including humans. In the locust, model SD-like events were triggered in the CNS by injecting small volumes of saline containing high levels of potassium ions (KCl at 150 mM instead of the nominal resting level of 10 mM) into the metathoracic ganglion. Potassium-sensitive microelectrodes were used to measure SD generated by KCl injections, while manipulating the PKG pathway.
# This tissue response is characterised by a transient surge and subsequent clearance of potassium ions in the extracellular space ([K^+]o). During SD-like events ventilatory motor activity ceases. This was monitored using an electromyographic electrode positioned on an abdominal muscle used for ventilation (Ventilatory EMG). Upon restoration of the potassium ion gradient the neural activity recovered and preparations began to ventilate again.
# The first injection was used as a control. Following the first injection, animals were allowed 10 minutes of perfusion with standard locust saline before treatment with bath applications of selected drugs (i.e. KT5823, T-0156). All drugs were dissolved in a minimum amount of DMSO before further dilution with standard locust saline to a concentration of 10^−5M and were superfused over the metathoracic ganglion for 10 minutes before the second injection. A total of 20 minutes elapsed between the first and second injection in all experiments. As shown in Figure (Bi), duration at half the maximum amplitude was used to characterize the severity of SD-like events. A significant increase was observed following the second injection when compared to the first in control animals. […] Heat shock (HS) preconditioning reduced SD duration evoked by the first and second injections. […] Numbers in the histogram bars indicate number of preparations tested. Asterisks indicate statistically significant differences between the first and second injection ([…]).
# Motor pattern activity was not measured for T-0156/Cantharidin treatments. […] Figure (Cii) illustrates the drug effects by showing the percentage difference in rhythm recovery time (second injection relative to first injection).
# Single SD events were evoked by injection of saline (50 nL) containing elevated potassium chloride (150 mM vs. 10 mM) directly into the metathoracic ganglion. […] During SD, ventilatory motor activity monitored electromyographically (EMG) ceased and recovered upon restoration of the potassium ion gradient. The duration of the [K^+]o wave at half its maximal amplitude and the time from failure of motor patterning to the recovery of a ventilatory rhythm were measured. […] Numbers in brackets represent sample size.
# As in Example 3, SD events were evoked by injection of saline (50 nL) containing elevated potassium chloride (150 mM vs. 10 mM) directly into the metathoracic ganglion of locust preparations.
# [2] = test system: adult Drosophila melanogaster; format: in vivo; conditions: sitter adults, volatilized from DMSO 1 hr, 1 mM KT5823, 1 mM Cantharidin, 200 mM DCA, 10 mM 8-Bromo cGMP, 10 mM T-0156, versus DMSO sham
# Experimental: FIG. 9 is a diagram illustrating in vivo treatment of adult Drosophila melanogaster with pharmacological agents. […] Adult sitters were exposed to various drugs known to target components of the PKG pathway (FIG. 8A). These drugs included: 10 mM T0156, a cGMP-specific phosphodiesterase-5 inhibitor, 10 mM 8-Bromo-cGMP, a PKG activator, 1 mM KT5823, a PKG inhibitor, 1 mM Cantharidin, a PP2A inhibitor, and 200 mM DCA, a K^+ channel activator. All drugs were solubilized in dimethyl sulfoxide (DMSO), where flies treated with only DMSO were used as sham controls. […] 10 μL of drug solution was applied to a crushed Kim wipe at the bottom of each 10 mL test vial. An additional Kim wipe was crushed over top of this to prevent direct contact between the fly and solution. 10 flies were then placed in the vial which was capped with a semi-permeable buzz-stopper, covered with a cut-out finger of a large latex glove to prevent chemical vapours from escaping, and incubated in the dark. The flies were subjected to the drug for 1 hr prior to each behavioural assay. In the drug combination experiments, 20 uL of DMSO was used as a control sham, and combinations of two pharmacological treatments were added as two separate 10 uL aliquots.
# Whether or not fly PKG levels could be manipulated in vivo using a technique that uses volatilization of pharmacological agents was next examined. The role of these targets in vivo using sitter flies was examined by depositing pharmacological agents dissolved in DMSO on a cellulose tissue, and allowing them to volatize over minutes in an air tight vial at room temperature (FIG. 9). Adults were exposed to the volatilized compound for one hour in the dark and then assayed for locomotory resilience to acute hypoxia. Control sham animals (FIG. 7A) were treated with only DMSO. Compounds were chosen to target different components of the cGMP pathway (FIG. 8A) in tracheal smooth muscle and Chinese hamster ovary cells, where cGMP activates PKG, thereby activating PP2A, which then de-phosphorylates K^+ channels. The hypothesis that inhibition of this pathway would result in an increase in whole cell K^+ channel conductance, thereby leading to increased resilience to anoxic coma onset, was tested.
# Locomotory Tolerance Assay during Acute Hypoxia: Ten flies (separated into males or females) from each of the three strains (rover [for^R], sitter [for^S] and for^s2) were selected and placed in three separate vials with food at least 24 hours before each experiment. At the time of the experiment, flies were emptied into 10 mL empty test vials covered with permeable sponge caps of equivalent thickness, allowing for consistent gas exchange. These test vials were then placed into a 600 mL beaker which was covered with parafilm, creating a closed chamber with an escape hole (1 cm diameter). The parafilm top was punctured with a needle connected to a gas tank (by a plastic hose), through which the inert gas argon was expelled. […] The needle tip was fastened to the bottom of the beaker and inserted into a larger sponge of similar texture to the vial sponge caps to ensure that gas expelled from the needle was dispersed equally throughout the beaker. Also, to ensure that all test vial positions in the beaker received equal gas flow, test vial positions were alternated every trial to reduce variability.
# The experiment required exposing the test vials with 10 flies in the container to pure argon gas expelled from the tank at a flow rate of 600 cc/min+/−5%. Time of behavioural failure was recorded by observing the fly undergo a seizure, which was quickly followed by an anoxic coma.
# [3] = test system: PKG; assay: PKG enzyme activity assay on heads of treated flies; format: biochemical, Drosophila melanogaster; conditions: heads of sitter flies treated in vivo with volatilized agent; versus sham control
# Experimental: PKG enzyme activity assays: PKG enzyme activity assays were conducted according to the procedure outlined in Kaun et al. (J Exp Biol. 210(Pt 20):3547-3558, 2007). Adult Drosophila were decapitated and the heads were homogenized in 25 mM 1-1 Tris (pH 7.4), 1 mM 1-1 EDTA, 2 mM 1-1 EGTA, 5 mM 1-1 β-mercaptoethanol, 0.05% Triton X-100 and protease inhibitor solution (Roche Diagnostics). Following microcentrifugation for 5 min, the supernatant was removed and those supernatants containing equal amounts of total protein were examined for PKG enzyme activity. The reaction mixture contained the following substances: 40 mM 1-1 Tris-HCl (pH 7.4), 20 mM 1-1 magnesium acetate, 0.2 mM 1-1 [γ^32P]ATP (500-1000 c.p.m. pmol−1), […] heptapeptide (RKRSRAE), (SEQ ID NO:6), (3 mM 1-1 cGMP and a highly specific inhibitor of cAMP-dependent protein kinase. The next step of the procedure involved incubating the reaction mixtures at a temperature of 30° C. for 10 min, followed by ending the reaction by spotting 70 μl of the reaction mixture onto Whatman P-81 filters. To remove any unreacted [γ^32P]ATP, these spots were then soaked with 75 mM 1-1 H3PO4 for 5 min and washed three times with 75 mM 1-1 H3PO4. Before quantifying enzyme activity, filters were rinsed with 100% ethanol and air dried. To calculate PKG enzyme activity, counts were taken in a Wallac 1409 Liquid Scintillation Counter using universal scintillation cocktail (ICN). PKG activity was presented in the figures as pmol of ^32P incorporated into the substrate min−1 mg−1 protein.
# [4] = test system: NO-producing cells; assay: DAF2-DA staining of NO-producing cells in locust metathoracic ganglion; format: cell-based, Locusta migratoria; conditions: 100 μM; 3 minutes at 35° C.
# Experimental: The pattern of cell staining was similar to that of NOS staining in Schistocerca gregaria and L. migratoria (Müller and Bicker, The Journal of Neuroscience 14:7521-7528, 1994; Bullerjahn and Pflüger, Zoology 106:3-17, 2003). The scale in the Figure is 500 μm. FIGS. 4B and 4C show fluorescing cell bodies at room temperature (20° C.) (4B) and immediately following exposure to heat (35° C.) (4C) (scale for both Figures is 50 μm). The change in fluorescence following exposure to heat was quantified as shown in FIG. 4D (3 minutes at 35° C., shown by bar above x-axis). The difference between cell body fluorescence and background more than doubled immediately following exposure to heat (t=5 minutes). […] Fluorescence was measured from the brightest 3 cells from each ganglion. [Sample sizes: Control, n=7; LNAME, n=4; and No heat, n=3. Asterisks indicate significant differences of control from LNAME and No heat groups (Tukey, p<0.05).]
# [5] = test system: zebrafish; assay: Zebrafish behaviour during acute anoxia; format: in vivo; conditions: whole zebrafish in anoxic water post-treatment; expected
# Excerpt: Vertebrate (zebrafish) behaviour is examined during acute anoxia. Whole zebrafish are exposed to anoxic water post-treatment with a PDE5 inhibitor, 8-bromo-GMP, KT5823, and Cantharidin. The time until the animal knocks out during anoxia is monitored.
# [6] = test system: respiratory brain slices; assay: Neural function in respiratory brain slices during sodium azide-induced anoxia; set-up: species or system mouse or rat; conditions: expected
# Excerpt: Neural function in mammals (mouse or rat) is examined pharmacologically during acute anoxia in respiratory brain slices via sodium azide, which chemically induces anoxia. Following administration of the sodium azide, the time until neural failure is monitored. This is done in the presence of a PDE5 inhibitor, 8-bromo-GMP, KT5823, and Cantharidin.
# [7] = test system: mammals (mouse or rat); assay: Spreading depression in mammals; format: in vivo; conditions: expected
# Excerpt: The pharmacological effects of a PDE5 inhibitor, 8-bromo-GMP, KT5823, and Cantharidin during spreading depression are examined in mammals (mouse or rat).
SMILES,"time to anoxic coma onset during acute hypoxia, single agents [2]",head PKG enzyme activity [3],time to recover ventilatory central pattern generator (vCPG) function following SD [1],also measured
COC(=O)c1c(-c2cc(OC)c(OC)c(OC)c2)c2ccnc(OCc3ncccn3)c2c(=O)n1Cc1ccnc(C)c1 [T-0156],exhibited significant sensitivity to anoxic coma,significant increase in PKG activity levels compared with sitter control shams; also recorded: demonstrated significant effects compared to that of the sham control,–,"length of time to recover ventilatory motor pattern activity after SD ([1]; Example 1, bath application 10^-5 M for 10 minutes before second KCl injection): took significantly longer to recover motor pattern activity after the second injection; recovery time of ventilatory rhythm, second event versus first ([1]; Example 3, drug applied for 10 minutes prior to second injection, FIG. 3D): The recovery time was increased; time to anoxic coma onset during acute hypoxia, single agents ([2]; listed as T0156): increased sensitivity to acute hypoxia"
"COC(=O)[C@@H](N)CCCNC(=N)N[N+](=O)[O-] [LNAME, N(G)-nitro-L-arginine methyl ester]",–,–,dramatically reduced the length of time taken to recover ventilatory central pattern generator (vCPG) function following SD,DAF2-DA cell body fluorescence in response to heat stress [4]: prevented the increased fluorescence in response to heat stress
"N[C@@H](CCC(=O)N[C@@H](CSN=O)C(=O)NCC(=O)O)C(=O)O [SNOG, S-nitrosoglutathione]",–,–,did not exacerbate recovery times beyond that of control preparation times,–
"CC12C(=O)OC(=O)C1(C)C1CCC2O1 (centres unmarked) [Cantharidin, Hexahydro-3a,7a-dimethyl-4,7-epoxyisobenzofuran-1,3-dione]",demonstrated significant resilience to anoxic coma,PKG activity levels did not differ; also recorded: showed no significant effects on PKG enzyme activity levels compared to sham controls,–,time until the animal knocks out during anoxia [5]: neuroprotection and prolonged behaviour when subject to anoxia; time until neural failure [6]: neuroprotection and prolonged neural function when subject to anoxia; SD-like events and neural function [7]: neuroprotection and reduces SD-like events thereby prolonging neural function
"CC(=O)N[C@@H](C(=O)O)C(C)(C)SN=O [SNAP, S-nitroso-N-acetyl-D-penicillamine]",–,–,did not exacerbate recovery times beyond that of control preparation times,–
